≈ marks a conversion by molar mass, not a printed value.
Experiments:
[1] = test system: Mycobacterium avium; assay: Antimycobacterial activity against Mycobacterium avium CNCTC My 330/88 after 21 days by micromethod; format: functional; conditions: CNCTC My 330/88, 504 h
[2] = test system: Mycobacterium tuberculosis; assay: Antimycobacterial activity against Mycobacterium tuberculosis CNCTC My 331/88 after 14 days by micromethod; format: functional; conditions: CNCTC My 331/88, 336 h
[3] = test system: Mycobacterium avium; assay: Antimycobacterial activity against Mycobacterium avium CNCTC My 330/88 after 14 days by micromethod; format: functional; conditions: CNCTC My 330/88, 336 h
[4] = test system: Mycobacterium kansasii; assay: Antimycobacterial activity against Mycobacterium kansasii CNCTC My 235/80 after 14 days by micromethod; format: functional; conditions: CNCTC My 235/80, 336 h
[5] = test system: Mycobacterium kansasii; assay: Antimycobacterial activity against Mycobacterium kansasii 6509/96 clinical isolate after 14 days by micromethod; format: functional; conditions: 6509/96, 336 h
[6] = test system: Candida albicans; assay: Antifungal activity against Candida albicans ATCC 44859 after 24 hrs by broth microdilution method; format: functional; conditions: ATCC 44859, 24 h
[7] = test system: Candida albicans; assay: Antifungal activity against Candida albicans ATCC 44859 after 48 hrs by broth microdilution method; format: functional; conditions: ATCC 44859, 48 h
[8] = test system: Candida tropicalis; assay: Antifungal activity against Candida tropicalis 156 after 24 hrs by broth microdilution method; format: functional; conditions: Candida tropicalis, 156, 24 h
[9] = test system: Candida tropicalis; assay: Antifungal activity against Candida tropicalis 156 after 48 hrs by broth microdilution method; format: functional; conditions: Candida tropicalis, 156, 48 h
[10] = test system: Pichia kudriavzevii; assay: Antifungal activity against Candida krusei E28 after 24 hrs by broth microdilution method; format: functional; conditions: E28, 24 h
[11] = test system: Pichia kudriavzevii; assay: Antifungal activity against Candida krusei E28 after 48 hrs by broth microdilution method; format: functional; conditions: E28, 48 h
[12] = test system: Nakaseomyces glabratus; assay: Antifungal activity against Candida glabrata 20/I after 24 hrs by broth microdilution method; format: functional
[13] = test system: Nakaseomyces glabratus; assay: Antifungal activity against Candida glabrata 20/I after 48 hrs by broth microdilution method; format: functional
[14] = test system: Trichosporon asahii; assay: Antifungal activity against Trichosporon asahii 1188 after 24 hrs by broth microdilution method; format: functional; conditions: Trichosporon asahii, 1188, 24 h
[15] = test system: Trichosporon asahii; assay: Antifungal activity against Trichosporon asahii 1188 after 48 hrs by broth microdilution method; format: functional; conditions: Trichosporon asahii, 1188, 48 h
[16] = test system: Aspergillus fumigatus; assay: Antifungal activity against Aspergillus fumigatus 231 after 24 hrs by broth microdilution method; format: functional; conditions: Aspergillus fumigatus, 231, 24 h
[17] = test system: Aspergillus fumigatus; assay: Antifungal activity against Aspergillus fumigatus 231 after 48 hrs by broth microdilution method; format: functional; conditions: Aspergillus fumigatus, 231, 48 h
[18] = test system: Lichtheimia corymbifera; assay: Antifungal activity against Absidia corymbifera 272 after 24 hrs by broth microdilution method; format: functional; conditions: Lichtheimia corymbifera, 272, 24 h
[19] = test system: Lichtheimia corymbifera; assay: Antifungal activity against Absidia corymbifera 272 after 48 hrs by broth microdilution method; format: functional; conditions: Lichtheimia corymbifera, 272, 48 h
[20] = test system: Trichophyton mentagrophytes; assay: Antifungal activity against Trichophyton mentagrophytes 445 after 72 hrs by broth microdilution method; format: functional; conditions: Trichophyton mentagrophytes, 445, 72 h
[21] = test system: Trichophyton mentagrophytes; assay: Antifungal activity against Trichophyton mentagrophytes 445 after 120 hrs by broth microdilution method; format: functional; conditions: Trichophyton mentagrophytes, 445, 120 h
[22] = test system: Staphylococcus aureus; assay: Antibacterial activity against Staphylococcus aureus ATCC 6538 after 24 hrs by broth microdilution method; format: functional; conditions: ATCC 6538, 24 h
[23] = test system: Staphylococcus aureus; assay: Antibacterial activity against Staphylococcus aureus ATCC 6538 after 48 hrs by broth microdilution method; format: functional; conditions: ATCC 6538, 48 h
[24] = test system: Staphylococcus aureus; assay: Antibacterial activity against methicillin-resistant Staphylococcus aureus HK5996/08 after 24 hrs by broth microdilution method; format: functional; conditions: HK5996/08, 24 h
[25] = test system: Staphylococcus aureus; assay: Antibacterial activity against methicillin-resistant Staphylococcus aureus HK5996/08 after 48 hrs by broth microdilution method; format: functional; conditions: HK5996/08, 48 h
[26] = test system: Staphylococcus epidermidis; assay: Antibacterial activity against Staphylococcus epidermidis HK6996/08 after 24 hrs by broth microdilution method; format: functional; conditions: HK6996/08, 24 h
[27] = test system: Staphylococcus epidermidis; assay: Antibacterial activity against Staphylococcus epidermidis HK6996/08 after 48 hrs by broth microdilution method; format: functional; conditions: HK6996/08, 48 h
[28] = test system: Enterococcus sp.; assay: Antibacterial activity against Enterococcus sp. HK14365/08 after 24 hrs by broth microdilution method; format: functional; conditions: HK14365/08, 24 h
[29] = test system: Enterococcus sp.; assay: Antibacterial activity against Enterococcus sp. HK14365/08 after 48 hrs by broth microdilution method; format: functional; conditions: HK14365/08, 48 h
[30] = test system: Escherichia coli; assay: Antibacterial activity against Escherichia coli ATCC 8739 after 24 hrs by broth microdilution method; format: functional; conditions: ATCC 8739, 24 h
[31] = test system: Escherichia coli; assay: Antibacterial activity against Escherichia coli ATCC 8739 after 48 hrs by broth microdilution method; format: functional; conditions: ATCC 8739, 48 h
[32] = test system: Klebsiella pneumoniae; assay: Antibacterial activity against Klebsiella pneumoniae HK11750/08 after 24 hrs by broth microdilution method; format: functional; conditions: HK11750/08, 24 h
[33] = test system: Klebsiella pneumoniae; assay: Antibacterial activity against Klebsiella pneumoniae HK11750/08 after 48 hrs by broth microdilution method; format: functional; conditions: HK11750/08, 48 h
[34] = test system: Klebsiella pneumoniae; assay: Antibacterial activity against extended spectrum beta-lactamase producing Klebsiella pneumoniae HK14368/08 after 24 hrs by broth microdilution method; format: functional; conditions: HK14368/08, 24 h
[35] = test system: Klebsiella pneumoniae; assay: Antibacterial activity against extended spectrum beta-lactamase producing Klebsiella pneumoniae HK14368/08 after 48 hrs by broth microdilution method; format: functional; conditions: HK14368/08, 48 h
[36] = test system: Pseudomonas aeruginosa; assay: Antibacterial activity against Pseudomonas aeruginosa ATCC 9027 after 24 hrs by broth microdilution method; format: functional; conditions: ATCC 9027, 24 h
[37] = test system: Pseudomonas aeruginosa; assay: Antibacterial activity against Pseudomonas aeruginosa ATCC 9027 after 48 hrs by broth microdilution method; format: functional; conditions: ATCC 9027, 48 h
[38] = Cytotoxicity against human HuH7 cells assessed as cell viability at 30 uM after 48 hrs by MTS assay relative to control; format: cell-based, Huh-7; conditions: read-out: Activity
[39] = test system: Huh-7; assay: Cytotoxicity against human HuH7 cells assessed as cell viability after 48 hrs by MTS assay; format: cell-based; conditions: Huh-7, 48 h
[40] = test system: A-431; assay: Cytotoxicity against human A431 cells assessed as cell viability after 48 hrs by MTS assay; format: cell-based; conditions: A-431, 48 h
[41] = Cytotoxicity against human A431 cells assessed as cell viability at 30 uM after 48 hrs by MTS assay relative to control; format: cell-based, A-431; conditions: read-out: Activity
[42] = test system: MDCK; assay: Cytotoxicity against MDCK cells assessed as cell viability after 48 hrs by MTS assay; format: cell-based; conditions: Canis lupus familiaris
[43] = Cytotoxicity against MDCK cells assessed as cell viability at 30 uM after 48 hrs by MTS assay relative to control; format: cell-based, Canis lupus familiaris; conditions: dog, read-out: Activity
[44] = test system: HepG2; assay: Cytotoxicity against human HepG2 cells assessed as cell viability after 48 hrs by MTS assay; format: cell-based; conditions: HepG2, 48 h
[45] = Cytotoxicity against human HepG2 cells assessed as cell viability at 30 uM after 48 hrs by MTS assay relative to control; format: cell-based; conditions: read-out: Activity
[46] = Selectivity index, ratio of IC50 for human HepG2 cells to MIC for Mycobacterium tuberculosis; format: toxicity; conditions: read-out: Selectivity Index
[47] = test system: Mycobacterium tuberculosis; assay: Antimycobacterial activity against Mycobacterium tuberculosis CNCTC My 331/88 after 21 days by micromethod; format: functional; conditions: CNCTC My 331/88, 504 h
[48] = test system: Mycobacterium kansasii; assay: Antimycobacterial activity against Mycobacterium kansasii CNCTC My 235/80 after 21 days by micromethod; format: functional; conditions: CNCTC My 235/80, 504 h
[49] = test system: Mycobacterium kansasii; assay: Antimycobacterial activity against Mycobacterium kansasii CNCTC My 235/80 after 7 days by micromethod; format: functional; conditions: CNCTC My 235/80, 168 h
[50] = test system: Mycobacterium kansasii; assay: Antimycobacterial activity against Mycobacterium kansasii 6509/96 clinical isolate after 21 days by micromethod; format: functional; conditions: 6509/96, 504 h
[51] = test system: Mycobacterium kansasii; assay: Antimycobacterial activity against Mycobacterium kansasii 6509/96 clinical isolate after 7 days by micromethod; format: functional; conditions: 6509/96, 168 h

Compound: O=[N+]([O-])c1cc(-n2nnnc2SCc2ccc(Cl)c(Cl)c2)cc([N+](=O)[O-])c1
- MIC [1]: 32 µM (≈ 13.7 µg/mL)
- MIC [2]: 0.25 µM (≈ 0.107 µg/mL)
- MIC [3]: 8 µM (≈ 3.42 µg/mL)
- MIC [4]: 1 µM (≈ 0.427 µg/mL)
- MIC [5]: 0.5 µM (≈ 0.214 µg/mL)
- MIC [6]: > 500 µM
- MIC [7]: > 500 µM
- MIC [8]: > 500 µM
- MIC [9]: > 500 µM
- MIC [10]: > 500 µM
- MIC [11]: > 500 µM
- MIC [12]: > 500 µM
- MIC [13]: > 500 µM
- MIC [14]: > 500 µM
- MIC [15]: > 500 µM
- MIC [16]: > 500 µM
- MIC [17]: > 500 µM
- MIC [18]: > 500 µM
- MIC [19]: > 500 µM
- MIC [20]: > 500 µM
- MIC [21]: > 500 µM
- MIC [22]: 62 µM (≈ 26.5 µg/mL)
- MIC [23]: 62 µM (≈ 26.5 µg/mL)
- MIC [24]: 125 µM (≈ 53.4 µg/mL)
- MIC [25]: 125 µM (≈ 53.4 µg/mL)
- MIC [26]: 250 µM (≈ 107 µg/mL)
- MIC [27]: 250 µM (≈ 107 µg/mL)
- MIC [28]: > 500 µM
- MIC [29]: > 500 µM
- MIC [30]: > 500 µM
- MIC [31]: > 500 µM
- MIC [32]: > 500 µM
- MIC [33]: > 500 µM
- MIC [34]: > 500 µM
- MIC [35]: > 500 µM
- MIC [36]: > 500 µM
- MIC [37]: > 500 µM
- viability at 48 h, 30 µM [38]: 137%
- IC50 [39]: > 30 µM
- IC50 [40]: > 30 µM
- viability at 48 h, 30 µM [41]: 90%
- IC50 [42]: > 30 µM
- viability at 48 h, 30 µM [43]: 84%
- IC50 [44]: > 30 µM
- viability at 48 h, 30 µM [45]: 145%
- selectivity ratio [46]: > 120
- MIC [47]: 0.25 µM (≈ 0.107 µg/mL)
- MIC [48]: 1 µM (≈ 0.427 µg/mL)
- MIC [49]: 0.5 µM (≈ 0.214 µg/mL)
- MIC [50]: 1 µM (≈ 0.427 µg/mL)
- MIC [51]: 0.25 µM (≈ 0.107 µg/mL)
